Source: PMC11876601 (Molecular Systems Biology, 2025)
Read-outs that look alike come from different tables or passages of the source.

Tests used:
AsPC-1 [1] = assay: cells; set-up: ATPlite luminescence viability of PDAC cell lines, 11-dose single-agent curves, 4-parameter fit; conditions: Homo sapiens, ASPC1, 72 h, read-out: EC50 [nM]
How it was run: (§1)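 Drug-combination screening used cells plated at 1000 to 5000 per well one day before treatment. Final DMSO was 0.2%. Each plate held untreated negative-control wells and 5 µM staurosporine positive-control wells.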

HuP-T4 [2] = assay: cells; set-up: ATPlite luminescence viability of PDAC cell lines, 11-dose single-agent curves, 4-parameter fit; conditions: Homo sapiens, HuP-T4, 72 h, read-out: EC50 [nM]
How it was run: as §1

BxPC-3 [3] = assay: cells; set-up: ATPlite luminescence viability of PDAC cell lines, 11-dose single-agent curves, 4-parameter fit; conditions: Homo sapiens, BXPC-3, 72 h, read-out: EC50 [nM]
How it was run: as §1

HPDE [4] = assay: cells; set-up: ATPlite luminescence viability of PDAC cell lines, 11-dose single-agent curves, 4-parameter fit; conditions: HPDE, 72 h, read-out: EC50 [nM]
How it was run: as §1

Dan-G [5] = assay: cells; set-up: ATPlite luminescence viability of PDAC cell lines, 11-dose single-agent curves, 4-parameter fit; conditions: 72 h, read-out: EC50 [nM]
How it was run: as §1

MiaPaCa-2 [6] = assay: cells; set-up: ATPlite luminescence viability of PDAC cell lines, 11-dose single-agent curves, 4-parameter fit; conditions: Homo sapiens, MIA PaCa-2, 72 h, read-out: EC50 [nM]
How it was run: as §1

FAMPAC [7] = assay: cells; set-up: ATPlite luminescence viability of PDAC cell lines, 11-dose single-agent curves, 4-parameter fit; conditions: 72 h, read-out: EC50 [nM]
How it was run: as §1

PSN-1 [8] = assay: cells; set-up: ATPlite luminescence viability of PDAC cell lines, 11-dose single-agent curves, 4-parameter fit; conditions: Homo sapiens, PSN1, 72 h, read-out: EC50 [nM]
How it was run: as §1

Colo-357 [9] = assay: cells; set-up: ATPlite luminescence viability of PDAC cell lines, 11-dose single-agent curves, 4-parameter fit; conditions: Homo sapiens, COLO357, 72 h, read-out: EC50 [nM]
How it was run: as §1

Capan-1 [10] = assay: cells; set-up: ATPlite luminescence viability of PDAC cell lines, 11-dose single-agent curves, 4-parameter fit; conditions: Homo sapiens, CAPAN-1, 72 h, read-out: EC50 [nM]
How it was run: as §1

PaTu-8988-T [11] = assay: cells; set-up: ATPlite luminescence viability of PDAC cell lines, 11-dose single-agent curves, 4-parameter fit; conditions: Homo sapiens, PaTu 8988t, 72 h, read-out: EC50 [nM]
How it was run: as §1

Suit2-07 [12] = assay: cells; set-up: ATPlite luminescence viability of PDAC cell lines, 11-dose single-agent curves, 4-parameter fit; conditions: 72 h, read-out: EC50 [nM]
How it was run: as §1

PANC-1 [13] = assay: cells; set-up: Viability of PDAC cell lines, ATPlite luminescence, 11-dose single-agent curve fit; conditions: Homo sapiens, PANC-1, 72 h, read-out: EC50 [nM]
How it was run: (§2)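 screening used cells plated at 1000 to 5000 per well one day before treatment. Final DMSO was 0.2%. Each plate held untreated negative-control wells and 5 µM staurosporine positive-control wells.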

[14] = system: HPDE (immortalized pancreatic duct cell line); assay: Drug combination viability screen (ATPlite, 72 h); assay type: cell-based, human; conditions: single agent, HPDE;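 further: area under vehicle-normalized viability curve scaled 0 to 100 percent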
Procedure: (§3) Cell viability was assessed by measuring ATP levels to indicate metabolic activity.
(§4) Afterward, small amounts were transferred to 384-well intermediate plates (Greiner Bio-One GmbH, Germany). […] For drug combination screening, 1000 to 5000 cells were seeded into 384-well plates (CulturPlate™, Perkin Elmer, MA, USA) using a Multidrop™ Combi Reagent Dispenser (Thermo Scientific, MA, USA) in 50 µl medium per well 24 h prior to drug treatment (seeding densities see Appendix Table S1). […] The final DMSO concentration in each well was 0.2%. […] Eight wells per plate without library drug served as negative controls, and sixteen wells per plate containing 5 µM Staurosporine served as positive controls. Control plates not containing any drug were used to correct for incubation effects, and data quality was assessed by calculation of Z-prime of positive and negative controls according to1 Z-prime=1−3SDpos+3SDneg/[…] where SD is the standard deviation. […] Dose–response curves from the experimental and hypothetical data were compared, and shifts in AUC were used to describe combination effects (AUC∆ = AUChypothetical − AUCexperimental). […] Only combinations with R^2 > 0.8 in both conditions were considered in the synergy analysis.

13 PDAC cell lines = assay: Phenotypic drug combination viability screen (ATPlite, 72 h), cell line panel; assay type: cell-based, human; conditions: for median AUC across all cell lines: single agent, 72 h
Procedure: as §3, §4

AsPC-1 [15] = assay: cells; set-up: Viability of PDAC cell lines, ATPlite luminescence, 11-dose single-agent curve fit; conditions: Homo sapiens, ASPC1, 72 h, read-out: EC50 [nM]
How it was run: as §2

HuP-T4 [16] = assay: cells; set-up: Viability of PDAC cell lines, ATPlite luminescence, 11-dose single-agent curve fit; conditions: Homo sapiens, HuP-T4, 72 h, read-out: EC50 [nM]
How it was run: as §2

BxPC-3 [17] = assay: cells; set-up: Viability of PDAC cell lines, ATPlite luminescence, 11-dose single-agent curve fit; conditions: Homo sapiens, BXPC-3, 72 h, read-out: EC50 [nM]
How it was run: as §2

HPDE [18] = assay: cells; set-up: Viability of PDAC cell lines, ATPlite luminescence, 11-dose single-agent curve fit; conditions: HPDE, 72 h, read-out: EC50 [nM]
How it was run: as §2

PaTu-8988-T [19] = assay: cells; set-up: Viability of PDAC cell lines, ATPlite luminescence, 11-dose single-agent curve fit; conditions: Homo sapiens, PaTu 8988t, 72 h, read-out: EC50 [nM]
How it was run: as §2

Dan-G [20] = assay: cells; set-up: Viability of PDAC cell lines, ATPlite luminescence, 11-dose single-agent curve fit; conditions: 72 h, read-out: EC50 [nM]
How it was run: as §2

MiaPaCa-2 [21] = assay: cells; set-up: Viability of PDAC cell lines, ATPlite luminescence, 11-dose single-agent curve fit; conditions: Homo sapiens, MIA PaCa-2, 72 h, read-out: EC50 [nM]
How it was run: as §2

FAMPAC [22] = assay: cells; set-up: Viability of PDAC cell lines, ATPlite luminescence, 11-dose single-agent curve fit; conditions: 72 h, read-out: EC50 [nM]
How it was run: as §2

PSN-1 [23] = assay: cells; set-up: Viability of PDAC cell lines, ATPlite luminescence, 11-dose single-agent curve fit; conditions: Homo sapiens, PSN1, 72 h, read-out: EC50 [nM]
How it was run: as §2

Colo-357 [24] = assay: cells; set-up: Viability of PDAC cell lines, ATPlite luminescence, 11-dose single-agent curve fit; conditions: Homo sapiens, COLO357, 72 h, read-out: EC50 [nM]
How it was run: as §2

Capan-1 [25] = assay: cells; set-up: Viability of PDAC cell lines, ATPlite luminescence, 11-dose single-agent curve fit; conditions: Homo sapiens, CAPAN-1, 72 h, read-out: EC50 [nM]
How it was run: as §2

Suit2-07 [26] = assay: cells; set-up: Viability of PDAC cell lines, ATPlite luminescence, 11-dose single-agent curve fit; conditions: 72 h, read-out: EC50 [nM]
How it was run: as §2

PANC-1 [27] = assay: cells; set-up: ATPlite luminescence viability of PDAC cell lines, 11-dose single-agent curves, 4-parameter fit; conditions: Homo sapiens, PANC-1, 72 h, read-out: EC50 [nM]
How it was run: as §1

Structure (SMILES) | EC50 (AsPC-1 [1]) [nM] | EC50 (BxPC-3 [3]) [nM] | EC50 (MiaPaCa-2 [6]) [nM] | EC50 (Colo-357 [9]) [nM] | EC50 (PANC-1 [13]) [nM] | EC50 (AsPC-1 [15]) [nM] | EC50 (BxPC-3 [17]) [nM] | EC50 (Colo-357 [24]) [nM] | EC50 (HPDE [4]) [nM] | EC50 (Dan-G [5]) [nM] | EC50 (FAMPAC [7]) [nM] | EC50 (PSN-1 [8]) [nM] | EC50 (Capan-1 [10]) [nM] | EC50 (PaTu-8988-T [11]) [nM] | EC50 (Suit2-07 [12]) [nM] | EC50 (HuP-T4 [16]) [nM] | EC50 (HPDE [18]) [nM] | EC50 (PaTu-8988-T [19]) [nM] | median AUC across all cell lines (13 PDAC cell lines) [%] | EC50 (Capan-1 [25]) [nM] | further results
Cn1ncnc1[C@H]1c2n[nH]c(=O)c3cc(F)cc(c23)N[C@@H]1c1ccc(F)cc1 [Talazoparib] | – | – | 825 | 355 | 1590 | 2650 | 2960 | – | – | 268 | 693 | 405 | 507 | – | 113 | 6060 | > 10000 | > 10000 | – | – | number of cell lines with synergy with GEM (13 PDAC cell lines; of 13 cell lines, Bliss model): two
O=C(Cc1ccc(-c2ccc(OCCN3CCOCC3)cc2)cn1)NCc1ccccc1 [Tirbanibulin] | 41.9 | 29.9 | 26.3 | 37.7 | – | – | – | – | 39.9 | 31.9 | 33.1 | 30.7 | 43.4 | 33 | 45 | 10300 | – | – | 60 | – | EC50 (PANC-1 [27]): 28.6 nM

Further lines, with some results ahead:

EC50 (AsPC-1 [1]) [nM] | EC50 (BxPC-3 [3]) [nM] | EC50 (MiaPaCa-2 [6]) [nM] | EC50 (Colo-357 [9]) [nM] | EC50 (PANC-1 [13]) [nM] | EC50 (AsPC-1 [15]) [nM] | EC50 (BxPC-3 [17]) [nM] | EC50 (Colo-357 [24]) [nM] | Structure (SMILES) | EC50 (HPDE [4]) [nM] | EC50 (Dan-G [5]) [nM] | EC50 (FAMPAC [7]) [nM] | EC50 (PSN-1 [8]) [nM] | EC50 (Capan-1 [10]) [nM] | EC50 (PaTu-8988-T [11]) [nM] | EC50 (Suit2-07 [12]) [nM] | EC50 (HuP-T4 [16]) [nM] | EC50 (HPDE [18]) [nM] | EC50 (PaTu-8988-T [19]) [nM] | median AUC across all cell lines (13 PDAC cell lines) [%] | EC50 (Capan-1 [25]) [nM] | further results
229 | 114 | 190 | 190 | 182 | – | – | – | O=C(/C=C\n1cnc(-c2cc(C(F)(F)F)cc(C(F)(F)F)c2)n1)NNc1cnccn1 [Selinexor] | 37.7 | 113 | 97 | 64.2 | 226 | 116 | 61 | – | – | – | – | – | EC50 (HuP-T4 [2]): 1200 nM; AUC [14]: < 60%
– | – | – | – | 29.2 | 1.54 | 0.06 | 4160 | CO[C@H]1C[C@@H]2CC[C@@H](C)[C@@](O)(O2)C(=O)C(=O)N2CCCC[C@H]2C(=O)O[C@H]([C@H](C)C[C@@H]2CC[C@@H](OC(=O)C(C)(CO)CO)[C@H](OC)C2)CC(=O)[C@H](C)/C=C(\C)[C@@H](O)[C@@H](OC)C(=O)[C@H](C)C[C@H](C)/C=C/C=C/C=C/1C [Temsirolimus] | – | – | – | – | – | – | – | 30.2 | 0.19 | 0.57 | > 80 | 0.08 | EC50 (Dan-G [20]): 1.3 nM; EC50 (MiaPaCa-2 [21]): 2.17 nM; EC50 (FAMPAC [22]): 0.13 nM; EC50 (PSN-1 [23]): 0.57 nM; EC50 (Suit2-07 [26]): 0.35 nM
3.02 | 13.1 | 3.92 | – | 45.6 | – | – | 1160 | CC(=O)Nc1cccc(-n2c(=O)n(C3CC3)c(=O)c3c(Nc4ccc(I)cc4F)n(C)c(=O)c(C)c32)c1 [Trametinib] | 7 | 1.4 | 9.21 | 5.34 | – | 7.98 | 8.92 | 8.2 | – | – | < 70 | 88.1 | –
